Measurements published in paper PMC10795023, “Structural Optimization and Biological Evaluation of Isoxazolo[5,4-d]pyrimidines as Selective Toll-Like Receptor 7 Agonists” (ACS Omega, 2024).
Where two headings read alike, the source gives them in different places.

Target: T1, hTLR7 (Homo sapiens, UniProt Q9NYK1)
T1 construct: host or cells: HEK293
T1 sequence (Q9NYK1 27-1049): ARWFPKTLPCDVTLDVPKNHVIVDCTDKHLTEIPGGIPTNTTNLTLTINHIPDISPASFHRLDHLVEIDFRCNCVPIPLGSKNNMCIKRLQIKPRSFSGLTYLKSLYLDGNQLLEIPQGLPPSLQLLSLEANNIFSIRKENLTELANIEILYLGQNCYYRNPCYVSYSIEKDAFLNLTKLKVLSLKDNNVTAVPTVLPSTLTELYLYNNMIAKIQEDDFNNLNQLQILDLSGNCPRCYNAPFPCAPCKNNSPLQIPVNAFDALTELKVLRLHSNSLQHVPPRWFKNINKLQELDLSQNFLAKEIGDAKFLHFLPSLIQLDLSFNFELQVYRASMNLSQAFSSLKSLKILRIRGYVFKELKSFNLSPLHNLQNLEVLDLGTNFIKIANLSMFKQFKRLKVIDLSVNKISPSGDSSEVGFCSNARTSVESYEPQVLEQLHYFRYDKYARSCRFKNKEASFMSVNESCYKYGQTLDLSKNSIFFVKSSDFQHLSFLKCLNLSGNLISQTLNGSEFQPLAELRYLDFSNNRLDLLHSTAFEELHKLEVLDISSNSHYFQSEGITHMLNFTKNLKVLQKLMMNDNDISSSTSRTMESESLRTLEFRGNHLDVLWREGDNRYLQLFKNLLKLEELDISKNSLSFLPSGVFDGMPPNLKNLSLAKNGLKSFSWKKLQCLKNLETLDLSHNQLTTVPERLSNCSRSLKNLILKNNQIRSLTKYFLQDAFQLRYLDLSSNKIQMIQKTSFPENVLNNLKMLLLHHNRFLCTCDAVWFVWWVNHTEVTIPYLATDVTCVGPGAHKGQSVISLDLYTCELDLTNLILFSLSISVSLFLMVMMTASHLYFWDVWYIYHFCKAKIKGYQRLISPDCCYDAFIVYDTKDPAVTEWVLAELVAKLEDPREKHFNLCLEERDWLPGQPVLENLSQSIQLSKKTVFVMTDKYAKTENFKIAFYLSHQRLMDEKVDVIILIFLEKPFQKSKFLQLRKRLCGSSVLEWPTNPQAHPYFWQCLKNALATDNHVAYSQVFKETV
Assay: TLR7 agonist activity, HEK293 hTLR7 SEAP reporter assay
Assay type: cell-based
Settings: for EC50: HEK293 cotransfected with hTLR7 and inducible SEAP reporter gene, 24 h treatment, average ± SD of three independent replicates, n.a. = not active; for loss of activity/potency on TLR7 relative to parent compound 21a / plateau / maximum response (efficacy): HEK293-hTLR7 SEAP; for loss of activity/potency on TLR7 relative to parent compound 21a: EC50 compared with 21a; for plateau / maximum response (efficacy): less than twofold increase in maximum response
Protocol: TLR7 agonist activities were determined using the HEK293 cell line, which was cotransfected with the hTLR7 gene and an inducible SEAP reporter gene (InvivoGen, San Diego, California, USA) as described previously.[34] Briefly, cells were seeded in 96-well plates (3 × 10^4 cells/well) and incubated at 5% CO2 and 37 °C. After 24 h, the cells were treated with the solutions of the compounds in DMSO. Imiquimod was used as a PC. The cells were incubated again for 24 h under the same conditions. The activity of SEAP in the supernatant of the cells was measured using the QUANTI-Blue reagent (InvivoGen, San Diego, California, USA), according to the manufacturer's protocol. EC50 values were determined using GraphPad Prism 9.2.0. software (San Diego, California, USA) using the nonlinear regression curve fit and four-parameter logistic equation. All experiments were performed in three independent biological replicates. Values are given as averages from the independent measurements with standard deviations calculated.

EC50	EC50 (read-out: EC50) [µM]	loss of activity/potency on TLR7 relative to parent compound 21a	plateau / maximum response (efficacy)	Compound
inactive	–	–	–	CC1CCCN(c2nc(C(F)(F)F)nc3onc(-c4ccccc4)c23)C1 (stereo not shown) [Compound 14a, 4-(3-Methylpiperidin-1-yl)-3-phenyl-6-(trifluoromethyl)isoxazolo[5,4-d]pyrimidine]
inactive	–	–	–	CC(C)CNc1nc(C(F)(F)F)nc2onc(-c3ccccc3)c12 [Compound 14b, N-Isobutyl-3-phenyl-6-(trifluoromethyl)isoxazolo[5,4-d]pyrimidin-4-amine]
–	21.4 ± 2.8	–	–	CC1CCCN(c2nc(C(F)(F)F)nc3onc(-c4ccc(Cl)cc4)c23)C1 (stereo not shown) [Compound 15a, 3-(4-Chlorophenyl)-4-(3-methylpiperidin-1-yl)-6-(trifluoromethyl)isoxazolo[5,4-d]pyrimidine]
agonist activity was lost	–	–	–	CC(C)CNc1nc(C(F)(F)F)nc2onc(-c3ccc(Cl)cc3)c12 [Compound 15b, 3-(4-Chlorophenyl)-N-isobutyl-6-(trifluoromethyl)isoxazolo[5,4-d]pyrimidin-4-amine]
–	> 150	–	–	CC1CCCN(c2nc(C(F)(F)F)nc3onc(-c4ccc(C(F)(F)F)cc4)c23)C1 (stereo not shown) [Compound 16a, 4-(3-Methylpiperidin-1-yl)-6-(trifluoromethyl)-3-(4-(trifluoromethyl)phenyl)isoxazolo[5,4-d]pyrimidine]
did not offer any change in activity	–	–	–	CC1CCCN(c2nc(C(F)(F)F)nc3onc(-c4cccc([N+](=O)[O-])c4)c23)C1 (stereo not shown) [Compound 19a, 4-(3-Methylpiperidin-1-yl)-3-(3-nitrophenyl)-6-(trifluoromethyl)isoxazolo[5,4-d]pyrimidine]
did not offer any change in activity	–	–	–	CC(C)CNc1nc(C(F)(F)F)nc2onc(-c3cccc([N+](=O)[O-])c3)c12 [Compound 19b, N-Isobutyl-3-(3-nitrophenyl)-6-(trifluoromethyl)isoxazolo[5,4-d]pyrimidin-4-amine]
no activity observed	–	–	–	CC(C)CNc1nc(C(F)(F)F)nc2onc(-c3ccc(F)cc3)c12 [Compound 21b, 3-(4-Fluorophenyl)-N-isobutyl-6-(trifluoromethyl)isoxazolo[5,4-d]pyrimidin-4-amine]
inactive	–	–	–	Fc1ccc(-c2noc3nc(C(F)(F)F)nc(NC4CC4)c23)cc1 [Compound 21c, N-Cyclopropyl-3-(4-fluorophenyl)-6-(trifluoromethyl)isoxazolo[5,4-d]pyrimidin-4-amine]
–	63.3 ± 9.8	Approximately 10 fold	low plateau response	CC1CCCCN1c1nc(C(F)(F)F)nc2onc(-c3ccc(F)cc3)c12 (stereo not shown) [Compound 21e, 3-(4-Fluorophenyl)-4-(2-methylpiperidin-1-yl)-6-(trifluoromethyl)isoxazolo[5,4-d]pyrimidine]
–	68 ± 8.1	Approximately 10 fold	low plateau response	CC1CCN(c2nc(C(F)(F)F)nc3onc(-c4ccc(F)cc4)c23)CC1 [Compound 21f, 3-(4-Fluorophenyl)-4-(4-methylpiperidin-1-yl)-6-(trifluoromethyl)isoxazolo[5,4-d]pyrimidine]
retained the potency	11 ± 0.1	–	low plateau response	CC1CN(c2nc(C(F)(F)F)nc3onc(-c4ccc(F)cc4)c23)CCO1 (stereo not shown) [Compound 21g, 3-(4-Fluorophenyl)-4-(2-methylmorpholino)-6-(trifluoromethyl)isoxazolo[5,4-d]pyrimidine]
lacked activity	–	–	–	CC1CN(c2nc(C(F)(F)F)nc3onc(-c4ccc(F)cc4)c23)CCN1 (stereo not shown) [Compound 21h, 3-(4-Fluorophenyl)-4-(3-methylpiperazin-1-yl)-6-(trifluoromethyl)isoxazolo[5,4-d]pyrimidine]
lacked activity	> 150	–	–	CN1CCN(c2nc(C(F)(F)F)nc3onc(-c4ccc(F)cc4)c23)CC1 [Compound 21j, 3-(4-Fluorophenyl)-4-(4-methylpiperazin-1-yl)-6-(trifluoromethyl)isoxazolo[5,4-d]pyrimidine]
slightly less potent	24.5 ± 1.6	–	–	CC1(C)CCCN(c2nc(C(F)(F)F)nc3onc(-c4ccc(F)cc4)c23)C1 [Compound 21o, 4-(3,3-Dimethylpiperidin-1-yl)-3-(4-fluorophenyl)-6-(trifluoromethyl)isoxazolo[5,4-d]pyrimidine]
slightly less potent	17.5 ± 3	–	–	Fc1ccc(-c2noc3nc(C(F)(F)F)nc(N4CCCC5(CC5)C4)c23)cc1 [Compound 21p, 3-(4-Fluorophenyl)-4-(5-azaspiro[2.5]octan-5-yl)-6-(trifluoromethyl)isoxazolo[5,4-d]pyrimidine]
–	81.1 ± 7	Approximately 10 fold	–	CC(C)C1CCCN(c2nc(C(F)(F)F)nc3onc(-c4ccc(F)cc4)c23)C1 (stereo not shown) [Compound 21q, 3-(4-Fluorophenyl)-4-(3-isopropylpiperidin-1-yl)-6-(trifluoromethyl)isoxazolo[5,4-d]pyrimidine]
–	> 150	–	–	COC1CCN(c2nc(C(F)(F)F)nc3onc(-c4ccc(F)cc4)c23)C1 (stereo not shown) [Compound 21t, 3-(4-Fluorophenyl)-4-(3-methoxypyrrolidin-1-yl)-6-(trifluoromethyl)isoxazolo[5,4-d]pyrimidine]
–	> 150	–	–	Fc1ccc(-c2noc3nc(C(F)(F)F)nc(N4CCCC4)c23)cc1 [Compound 21v, 3-(4-Fluorophenyl)-4-(pyrrolidin-1-yl)-6-(trifluoromethyl)isoxazolo[5,4-d]pyrimidine]
retained its activity	15.9 ± 0.9	–	low plateau response	CC1CCCC(c2nc(C(F)(F)F)nc3onc(-c4ccc(F)cc4)c23)C1 (stereo not shown) [Compound 21y, 3-(4-Fluorophenyl)-4-(3-methylcyclohexyl)-6-(trifluoromethyl)isoxazolo[5,4-d]pyrimidine]
–	16.4 ± 0.1	–	–	CC1CCCN(c2nc(C(F)(F)F)nc3onc(-c4ccc(F)c(Br)c4)c23)C1 (stereo not shown) [Compound 22, 3-(3-Bromo-4-fluorophenyl)-4-(3-methylpiperidin-1-yl)-6-(trifluoromethyl)isoxazolo[5,4-d]pyrimidine]
–	19.9 ± 3.1	–	–	CC1CCCN(c2nc(C(F)(F)F)nc3onc(Cc4ccc(F)c(F)c4)c23)C1 (stereo not shown) [Compound 23a, 3-(3,4-Difluorobenzyl)-4-(3-methylpiperidin-1-yl)-6-(trifluoromethyl)isoxazolo[5,4-d]pyrimidine]
